A short description of series [1]: logP by HPLC on reversed-phase column (EEC Directive 79/831 Annex V.A8). The class given is physicochemical. As to conditions: reversed-phase C18 HPLC column, 43° C., acidic range pH 2.7 (0.1% formic acid/acetonitrile), read-out: Log P. As to the method: The logP values reported in the preparation examples and tables above are determined in accordance with EEC Directive 79/831 Annex V.A8 by means of HPLC (High Performance Liquid Chromatography) on a reversed-phase column (C18). Temperature: 43° C. The determination with the LC-MS in the acidic range takes place at a pH of 2.7 using 0.1% aqueous formic acid and acetonitrile (containing 0.1% formic acid) as eluents; linear gradient from 10% acetonitrile to 95% acetonitrile. Calibration takes place using unbranched alkan-2-ones (having 3 to 16 carbon atoms) of which the logP values are known (logP values determined on the basis of the retention times, by linear interpolation between two successive alkanones).

Another series deals with Puccinia recondita. In words: Puccinia test (wheat)/protective. The format is in vivo. As to conditions: wheat plants, protective spray, application rate 1500 ppm, evaluation 7-9 days after inoculation. The text has this:
Puccinia Test (Wheat)/Protective
• Solvent: 49 parts by weight of N,N-dimethylformamide • Emulsifier: 1 part by weight of alkylaryl polyglycol ether
An appropriate preparation of active compound is produced by mixing 1 part by weight of active compound with the stated amounts of solvent and emulsifier and diluting the concentrate with water to the desired concentration. To test for protective activity, young wheat plants are sprayed with the preparation of active compound at the stated application rate. A day after the treatment, the plants are inoculated with a spore suspension of Puccinia recondita and then stand for 48 hours at 100% relative humidity and 22° C. Subsequently the plants stand at 80% relative humidity and a temperature of 20° C. After 7-9 days following inoculation, evaluation takes place. Here, 0% denotes an efficacy which corresponds to that of the control, whereas an efficacy of 100% means that no infestation is observed.

Chromatographic logP and Efficacy in % data for one compound are collected here from patent US8916703B2, “Dithiinopyridazinone derivates” (Bayer Intellectual Property GmbH, priority 2010, dated 2014).

Regarding `CC(C)(C)n1ncc2c(c1=O)Sc1c(cnn(C(C)(C)C)c1=O)S2` [Compound 7, 2,8-di-tert-butyl[1,4]dithilino[2,3-d:5,6-d′]dipyridazine-1,9(2H,8H)-dione], the chromatographic logP in series [1] is 4.6. The same compound had an Efficacy in % in the series with Puccinia recondita of 70%.
